The values that follow come from patent publication US20250206732A1, “COMPOUNDS AND METHODS FOR THE TARGETED DEGRADATION OF KRAS” (Arvinas Operations, Inc., priority 2022, published 2025).

As a reminder, the DC50 is the concentration at which degradation of the target reaches its halfway point. As a reminder, the Dmax is the largest share of the target that was removed. Low readings indicate a partial loss of target, high ones a fuller loss of target.

For the assay, the target named is T1, AsPC-1 HiBiT-KRASG12D (Homo sapiens, UniProt P01116, G12D).
T1 construct: insert the HiBiT tag onto the N-terminus of one or more of the endogenous KRAS alleles; endogenous in cells; host or cells: AsPC-1 (ATCC CRL-1682), CRISPR-Cas9 knock-in clone, one tagged allele
The assay is described as follows: HiBiT degradation assay (G12D), AsPC-1 HiBiT-KRASG12D cells. Format: cell-based. The settings on record: 24 hours treatment; for DC50: AsPC-1 HiBiT-KRASG12D cells, HiBiT luminescence; for Dmax: ASPC1, AsPC-1 HiBiT-KRASG12D cells, maximum degradation observed. Summed up:
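Steps: treat HiBiT-KRASG12D AsPC-1 cells with compound for 24 hours; add alamar blue to 1× and incubate 4 hours to assess viability; wash with PBS; add HiBiT lytic detection reagent, incubate 45 minutes at room temperature; read luminescence. Viability fluorescence is normalized to DMSO wells.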
(In general: The HiBiT peptide binds its large partner to form an active luciferase.)

T1 sequence (P01116 1-188 isoform P01116-2 G12D): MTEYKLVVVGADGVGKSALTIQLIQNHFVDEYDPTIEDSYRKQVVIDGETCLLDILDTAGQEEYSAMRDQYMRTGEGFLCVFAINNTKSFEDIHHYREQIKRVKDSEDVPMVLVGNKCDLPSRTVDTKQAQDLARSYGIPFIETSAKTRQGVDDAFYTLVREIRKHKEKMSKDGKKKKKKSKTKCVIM

`CCc1cccc2cc(O)cc(-c3ncc4c(N5CC6CCC(C5)N6)nc(OC[C@]56CCCN5[C@@H](COc5cc([C@@H](C(=O)N7C[C@H](O)C[C@H]7C(=O)N[C@@H](C)c7ccc(-c8scnc8C)cc7)C(C)C)on5)CC6)nc4c3F)c12` [Compound 28, (2S,4R)-1-[(2S)-2-(3-{[(3R,7aR)-7a-{[(4-{3,8-diazabicyclo[3.2.1]octan-3-yl}-7-(8-ethyl-3-hydroxynaphthalen-1-yl)-8-fluoropyrido[4,3-d]pyrimidin-2-yl)oxy]methyl}-hexahydro-1H-pyrrolizin-3-yl]methoxy}-1,2-oxazol-5-yl)-3-methylbutanoyl]-4-hydroxy-N-[(1S)-1-[4-(4-methyl-1,3-thiazol-5-yl)phenyl]ethyl]pyrrolidine-2-carboxamide]: the DC50 is more than 3000 nM.

Take `CCc1cccc2cc(O)cc(-c3ncc4c(N5CC6CCC(C5)N6)nc(OC[C@@]56CCCN5[C@H](COc5cc([C@H](C(=O)N7C[C@H](O)C[C@H]7C(=O)N[C@@H](C)c7ccc(-c8scnc8C)cc7)C(C)C)on5)CC6)nc4c3F)c12` [Compound 29, (2S,4R)-1-[(2R)-2-(3-{[(3S,7aS)-7a-{[(4-{3,8-diazabicyclo[3.2.1]octan-3-yl}-7-(8-ethyl-3-hydroxynaphthalen-1-yl)-8-fluoropyrido[4,3-d]pyrimidin-2-yl)oxy]methyl}-hexahydro-1H-pyrrolizin-3-yl]methoxy}-1,2-oxazol-5-yl)-3-methylbutanoyl]-4-hydroxy-N-[(1S)-1-[4-(4-methyl-1,3-thiazol-5-yl)phenyl]ethyl]pyrrolidine-2-carboxamide]: the Dmax fell in the range of 80 to 100% and the DC50 is less than 600 nM.

`CCc1cccc2cc(O)cc(-c3ncc4c(N5CC6CCC(C5)N6)nc(OC[C@@]56CCCN5[C@H](COc5cc([C@@H](C(=O)N7C[C@H](O)C[C@H]7C(=O)N[C@@H](C)c7ccc(-c8scnc8C)cc7)C(C)C)on5)CC6)nc4c3F)c12` [Compound 30, (2S,4R)-1-[(2S)-2-(3-{[(3S,7aS)-7a-{[(4-{3,8-diazabicyclo[3.2.1]octan-3-yl}-7-(8-ethyl-3-hydroxynaphthalen-1-yl)-8-fluoropyrido[4,3-d]pyrimidin-2-yl)oxy]methyl}-hexahydro-1H-pyrrolizin-3-yl]methoxy}-1,2-oxazol-5-yl)-3-methylbutanoyl]-4-hydroxy-N-[(1S)-1-[4-(4-methyl-1,3-thiazol-5-yl)phenyl]ethyl]pyrrolidine-2-carboxamide] registered a Dmax of 20 to 60% and a DC50 of less than 600 nM.

For the compound `CCc1cccc2cc(O)cc(-c3ncc4c(N5CC6CCC(C5)N6)nc(OCCN5CCC(C)(COc6cc([C@@H](C(=O)N7C[C@H](O)C[C@H]7C(=O)N[C@@H](C)c7ccc(-c8scnc8C)cc7)C(C)C)on6)CC5)nc4c3F)c12` [Compound 31, (2S,4R)-1-[(2S)-2-{3-[(1-{2-[(4-{3,8-diazabicyclo[3.2.1]octan-3-yl}-7-(8-ethyl-3-hydroxynaphthalen-1-yl)-8-fluoropyrido[4,3-d]pyrimidin-2-yl)oxy]ethyl}-4-methylpiperidin-4-yl)methoxy]-1,2-oxazol-5-yl}-3-methylbutanoyl]-4-hydroxy-N-[(1S)-1-[4-(4-methyl-1,3-thiazol-5-yl)phenyl]ethyl]pyrrolidine-2-carboxamide], the DC50 is more than 3000 nM.

As for `CCc1cccc2cc(O)cc(-c3ncc4c(N5CC6CCC(C5)N6)nc(OCCN5CCC(C)(COc6cc([C@H](C(=O)N7C[C@H](O)C[C@H]7C(=O)N[C@@H](C)c7ccc(-c8scnc8C)cc7)C(C)C)on6)CC5)nc4c3F)c12` [Compound 32, (2S,4R)-1-[(2R)-2-{3-[(1-{2-[(4-{3,8-diazabicyclo[3.2.1]octan-3-yl}-7-(8-ethyl-3-hydroxynaphthalen-1-yl)-8-fluoropyrido[4,3-d]pyrimidin-2-yl)oxy]ethyl}-4-methylpiperidin-4-yl)methoxy]-1,2-oxazol-5-yl}-3-methylbutanoyl]-4-hydroxy-N-[(1S)-1-[4-(4-methyl-1,3-thiazol-5-yl)phenyl]ethyl]pyrrolidine-2-carboxamide], the Dmax fell in the range of 80 to 100% and the DC50 is less than 600 nM.

On to `C#Cc1c(F)ccc2cc(O)cc(-c3ncc4c(N5CC6CCC(C5)N6)nc(OCCN5CCC6(CC5)CN(c5cc([C@H](C(=O)N7C[C@H](O)C[C@H]7C(=O)N[C@@H](C)c7ccc(-c8scnc8C)cc7)C(C)C)on5)C6)nc4c3F)c12` [Compound 33, (2S,4R)-1-[(2R)-2-[3-(7-{2-[(4-{3,8-diazabicyclo[3.2.1]octan-3-yl}-7-(8-ethynyl-7-fluoro-3-hydroxynaphthalen-1-yl)-8-fluoropyrido[4,3-d]pyrimidin-2-yl)oxy]ethyl}-2,7-diazaspiro[3.5]nonan-2-yl)-1,2-oxazol-5-yl]-3-methylbutanoyl]-4-hydroxy-N-[(1S)-1-[4-(4-methyl-1,3-thiazol-5-yl)phenyl]ethyl]pyrrolidine-2-carboxamide], for which the Dmax fell in the range of 80 to 100% and the DC50 is less than 600 nM.

Take `CCc1cccc2cc(O)cc(-c3ncc4c(N5CC6CCC(C5)N6)nc(OC[C@@H]5CC[C@@H](COC(=O)N6CCN(c7cc([C@H](C(=O)N8C[C@H](O)C[C@H]8C(=O)N[C@@H](C)c8ccc(-c9scnc9C)cc8)C(C)C)on7)CC6)N5C)nc4c3F)c12` [Compound 50, [(2S,5S)-5-{[(4-{3,8-diazabicyclo[3.2.1]octan-3-yl}-7-(8-ethyl-3-hydroxynaphthalen-1-yl)-8-fluoropyrido[4,3-d]pyrimidin-2-yl)oxy]methyl}-1-methylpyrrolidin-2-yl]methyl 4-{5-[(2R)-1-[(2S,4R)-4-hydroxy-2-{[(1S)-1-[4-(4-methyl-1,3-thiazol-5-yl)phenyl]ethyl]carbamoyl}pyrrolidin-1-yl]-3-methyl-1-oxobutan-2-yl]-1,2-oxazol-3-yl}piperazine-1-carboxylate]: the Dmax fell in the range of 80 to 100% and the DC50 is less than 600 nM.

Compound `C#Cc1c(F)ccc2cccc(-c3ncc4c(N5CC6CCC(C5)N6)nc(OC[C@@]56CCCN5[C@H](COc5cc([C@@H](C(=O)N7C[C@H](O)C[C@H]7C(=O)N[C@@H](C)c7ccc(-c8scnc8C)cc7)C(C)C)on5)CC6)nc4c3F)c12` [Compound 51, (2S,4R)-1-[(2S)-2-(3-{[(3S,7aS)-7a-{[(4-{3,8-diazabicyclo[3.2.1]octan-3-yl}-7-(8-ethynyl-7-fluoronaphthalen-1-yl)-8-fluoropyrido[4,3-d]pyrimidin-2-yl)oxy]methyl}-hexahydro-1H-pyrrolizin-3-yl]methoxy}-1,2-oxazol-5-yl)-3-methylbutanoyl]-4-hydroxy-N-[(1S)-1-[4-(4-methyl-1,3-thiazol-5-yl)phenyl]ethyl]pyrrolidine-2-carboxamide] showed a DC50 of more than 3000 nM.

As for `C#Cc1c(F)ccc2cccc(-c3ncc4c(N5CC6CCC(C5)N6)nc(OC[C@@]56CCCN5[C@H](COc5cc([C@H](C(=O)N7C[C@H](O)C[C@H]7C(=O)N[C@@H](C)c7ccc(-c8scnc8C)cc7)C(C)C)on5)CC6)nc4c3F)c12` [Compound 52, (2S,4R)-1-[(2R)-2-(3-{[(3S,7aS)-7a-{[(4-{3,8-diazabicyclo[3.2.1]octan-3-yl}-7-(8-ethynyl-7-fluoronaphthalen-1-yl)-8-fluoropyrido[4,3-d]pyrimidin-2-yl)oxy]methyl}-hexahydro-1H-pyrrolizin-3-yl]methoxy}-1,2-oxazol-5-yl)-3-methylbutanoyl]-4-hydroxy-N-[(1S)-1-[4-(4-methyl-1,3-thiazol-5-yl)phenyl]ethyl]pyrrolidine-2-carboxamide], the Dmax is 80 to 100% and the DC50 was less than 600 nM.
